Results as given in patent US6395735B2, “Pharmaceutical compounds” (Eli Lilly and Company, priority 1997, dated 2002).

What was measured:
human m1 receptor = target: T1, human m1 receptor (Homo sapiens, UniProt P11229); assay: m1 primary assay: arachidonic acid release in CHO-m1 cells; format: cell-based
T1 construct: expressed in transfected cells; host or cells: CHO (Chinese hamster) cells
T1 sequence (P11229 1-460): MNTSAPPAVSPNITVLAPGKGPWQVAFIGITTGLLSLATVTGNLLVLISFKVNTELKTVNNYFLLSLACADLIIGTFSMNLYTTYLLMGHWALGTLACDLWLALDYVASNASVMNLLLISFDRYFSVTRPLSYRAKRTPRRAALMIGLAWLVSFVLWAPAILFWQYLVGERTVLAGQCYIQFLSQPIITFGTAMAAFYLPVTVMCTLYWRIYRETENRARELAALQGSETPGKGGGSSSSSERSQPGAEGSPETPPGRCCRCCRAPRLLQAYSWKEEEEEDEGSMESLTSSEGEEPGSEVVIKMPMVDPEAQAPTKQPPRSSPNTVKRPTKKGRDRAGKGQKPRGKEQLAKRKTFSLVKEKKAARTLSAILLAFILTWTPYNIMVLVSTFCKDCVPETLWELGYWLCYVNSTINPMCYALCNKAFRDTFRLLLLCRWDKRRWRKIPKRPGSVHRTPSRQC
Method: CHO (Chinese hamster transfected with the human m1 receptor (CHO-m1) were grown to confluency in flasks using Dulbecco's Modified Eagle Medium (DMEM) containing 10% fetal bovine serum. Cells were detached with 0.05% trypsin, 0.53 mM EDTA. Cells were collected after centrifugation in a Beckman centrifuge at 1000 rpm for 10 minutes, diluted with culture medium (400,000 cells/ml) Aarachidonic acid was added to the cell solution at a 1:2000 ratio of a 1 mCi/ml stock and cells were plated at 40,000 cells per well into 96 well plates and incubated for 18 to 24 hours at 37 C and 5% CO2. Following the incubation, the medium was removed and the cells were washed with D-ME medium containing 2 mg/mL of fatty acid free BSA (250 L/well). The test compound of interest was diluted in D-ME-BSA and added to each well (150 L/well), incubated for 120 minutes at 37 C in 5% CO2. 80 µL of supernatant was transferred to Wallac 96 well plates containing 110 µL/well of Supermax scintillation cocktail at pH 9.0. Plates were counted in a Wallae microbeta counter.
Representative results from the m1 primary assay are as follows: […]

A9L-m1 = target: T2, A9L-m1 (Homo sapiens, UniProt P11229); assay: m1 secondary assay: PI stimulation in A9L-m1; format: cell-based; conditions: for Emax: A9L-m1, relative to carbachol, read-out: Pl stim. A9L-m1 % Max of carbachol; for EC50: A9L-m1, read-out: ED-50 Pl stim A9L-m1, nm
T2 sequence (P11229 1-460): T1 sequence (P11229 1-460)

Compound | Max. % activity @ 5 μM (human m1 receptor) [%] | Emax (A9L-m1) [%] | EC50 (A9L-m1) [nM]
O=C(N[C@@H]1c2cc(/N=C/N3CCCC3)ccc2C[C@H]1O)c1ccc(Cl)c(Cl)c1 [Compound 121] | 45.4 |  | 
O=C(N[C@@H]1c2cc(/N=C/N3CCCC3)ccc2C[C@H]1O)c1ccc(-c2ccccc2)cc1 [Compound 120] | 92.5 |  | 
O=C(NC1c2cc(/N=C/N3CCCC3)ccc2C[C@H]1O)c1ccc(-c2ccccc2)cc1 (some centres unmarked) [Compound 134] | 75.9 |  | 
CN(C)/C=N/c1ccc2c(c1)C(NC(=O)c1cccc(C(F)(F)F)c1)C(O)C2.Cl (centres unmarked) [Compound 126] | 102.2 |  | 
O=C(N[C@@H]1c2cc(/N=C/N3CCOCC3)ccc2C[C@H]1O)c1ccc(-c2ccccc2)cc1 [Compound 119] | 66.4 |  | 
Cc1ccc(C(=O)NC2c3cc(/N=C/N4CCCC4)ccc3C[C@@H]2O)cc1Br (some centres unmarked) [Compound 132] |  | 59 | 183
O=C(NC1c2cc(/N=C/N3CCCC3)ccc2CC1O)c1cccc(C(F)(F)F)c1 (centres unmarked) [Compound 123] | 76.7 |  | 
O=C(NC1c2cc(/N=C/N3CCCC3)ccc2C[C@@H]1O)c1ccc(F)c(Br)c1 (some centres unmarked) [Compound 131] |  | 70.5 | 43.6
O=C(NC1c2cc(/N=C/N3CCCC3)ccc2C[C@H]1O)c1ccc(Cl)cc1 (some centres unmarked) [Compound 122] | 80.9 |  | 
C/C(=N\c1ccc2c(c1)C(NC(=O)c1ccc(Cl)c(Cl)c1)C(O)C2)N(C)C (centres unmarked) [Compound 128] |  | 59.2 | 95.3
CN(C)/C=N/c1ccc2c(c1)[C@@H](NC(=O)c1ccc(Cl)cc1)[C@H](O)C2 [Compound 118] | 57.4 |  | 
CN(C)/C=N/c1ccc2c(c1)C(NC(=O)c1ccc(Cl)c(Cl)c1)C(O)C2.Cl (centres unmarked) [Compound 127] | 69.8 |  | 
C/C(=N\c1ccc2c(c1)C(NC(=O)c1cccc(C(F)(F)F)c1)C(O)C2)N(C)C (centres unmarked) [Compound 124] | 82.2 |  | 
CN1CCC/C1=N\c1ccc2c(c1)C(NC(=O)c1ccc(-c3ccccc3)cc1)[C@H](O)C2 (some centres unmarked) [Compound 125] | 114.0 |  | 
